Measured values reported in patent US20070292483A1, “REDUCING MUSCLE SORENESS WITH GLUCOSAMINE COMPOSITIONS” (Stokely-Van Camp, Inc., priority 2006, published 2007).

Assay: storage study of relatively neutral pH beverage compositions containing glucosamine
Type: physicochemical
Protocol: Special considerations in packaging, shipping, and or formulations may also be considered when delivering a targeted amount of glucosamine in the beverage compositions. As an example, shake-type beverages, such as the beverage composition provided in Table 3, are generally formulated to have a relatively neutral pH value.
Such a formulation was determined to deliver 1,500 mg of glucosamine based on results from a storage study. During the study, in which such beverages were stored for a period of 12 months at ambient (73 degrees Fahrenheit) temperature, it was determined that approximately 77% of glucosamine originally present had degraded during a 12 month storage period. Thus, information regarding the average shelf-life and/or delivery mechanisms for specific products may be utilized when formulating the beverage compositions. Such factors may include the temperature, time to consumption, packaging the compositions are stored within, among others.

## Cl.N[C@H]1C(O)O[C@H](CO)[C@@H](O)[C@@H]1O (some centres unmarked) [Glucosamine hydrochloride, glucosamine hydrochloride]
Formulated in beverages having neutral pHs (shake-type)
  degradation rate in beverage: degrades at a quickened rate

## N[C@H]1C(O)O[C@H](CO)[C@@H](O)[C@@H]1O (some centres unmarked) [glucosamine]
Relatively neutral pH beverage, around about 20 mg/ml glucosamine, stored 12 months at ambient (73 degrees Fahrenheit) temperature
  glucosamine originally present that had degraded during storage: approximately 77%
